Results from article PMC7477582, “Context dependent effects of ascorbic acid treatment in TET2 mutant myeloid neoplasia” (Communications Biology, 2020).

Molecular target: T1, TET2 catalytic domain (TET2CD) (Homo sapiens, UniProt Q6N021, DEL1481-1843)
T1 construct: GST-TET2CD (1099–1936 Del-insert), expressed in E. coli; also GST tag free TET2CD
Assay: SPR (Biacore […]), GST-TET2CD captured by anti-GST on CM5 chip; supported by Kd […] on 5mC-DNA-captured TET2CD and 5hmC ELISA EC50 […]
Type: binding

With `O=C1O[C@H]([C@@H](O)CO)C(O)=C1O` [AA, Ascorbic acid] the Kd was 9.1 ± 2.3 µM.
